# Where “and” joins values, the source holds several entries; their conditions need not be identical. Equal values may be shown once. Entries after “also recorded” stand apart in the source; their conditions may differ.
# Legend:
# human recombinant COX-2 = molecular target: T1, human recombinant COX-2 (Homo sapiens, UniProt P35354); assay: In vitro COX-2 inhibition, fluorescent inhibitor screening assay kit; conditions: for inhibitory activity on COX-2: at a concentration of 100 μM
# T1 sequence (P35354 18-604): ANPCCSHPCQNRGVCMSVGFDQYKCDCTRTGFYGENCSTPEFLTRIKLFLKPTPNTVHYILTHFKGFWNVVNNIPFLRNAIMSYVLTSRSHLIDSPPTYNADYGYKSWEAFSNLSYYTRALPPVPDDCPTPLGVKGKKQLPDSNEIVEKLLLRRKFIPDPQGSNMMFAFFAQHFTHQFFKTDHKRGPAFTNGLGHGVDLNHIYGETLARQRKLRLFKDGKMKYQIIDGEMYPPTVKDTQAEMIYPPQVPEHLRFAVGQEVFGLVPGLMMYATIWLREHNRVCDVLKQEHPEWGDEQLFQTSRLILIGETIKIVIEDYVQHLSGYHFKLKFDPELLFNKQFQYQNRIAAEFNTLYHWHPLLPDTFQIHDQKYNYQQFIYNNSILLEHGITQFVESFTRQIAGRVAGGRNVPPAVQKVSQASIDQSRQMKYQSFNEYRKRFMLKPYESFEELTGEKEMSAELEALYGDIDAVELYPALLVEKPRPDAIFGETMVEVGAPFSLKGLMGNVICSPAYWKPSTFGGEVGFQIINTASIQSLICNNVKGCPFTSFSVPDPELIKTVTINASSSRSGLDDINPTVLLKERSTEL
# Protocol: (§2) Test compounds, dissolved in DMSO, and were pre-incubated with the enzymes at 37 °C for 5 min before initiating the reaction with 1 mM arachidonic acid under light-protected conditions. The fluorescence was measured using a multi-well spectrophotometer (fluorescence plate reader). […] The percentage inhibition was calculated by comparing the absorbance values of the compounds to the vehicle control.
# (§3) This protocol utilizes a colorimetric assay to measure the peroxidase activity of Prostaglandin G/H
# (§4) Synthase (COX enzyme). The COX enzyme converts Arachidonic Acid (AA) to Prostaglandin G2
# (§5) (PGG2), which is then reduced to Prostaglandin H2 (PGH2) by the inherent peroxidase activity.
# (§6) peroxidase reaction co-oxidizes a chromogen, such as N,N,N',N'-Tetramethyl-p-phenylenediamine
# (§7) (TMPD), resulting in a colored product that can be measured spectrophotometrically at 590-630 nm.
# (§8) inhibition of COX enzyme by a test compound reduces the formation of this colored product, allowing
# (§9) for the calculation of percentage inhibition and subsequent IC50 values.
# (§10) o Ovine COX-1 (purified, commercially available)
# (§11) • Substrate: Arachidonic Acid (AA). Prepare a stock solution in ethanol. Note: AA is unstable;
# (§12) aliquot and store under inert gas (e.g., Argon) at -80°C.
# (§13) • Cofactor: Hemin. Prepare a stock solution in DMSO.
# (§14) • Chromogen: N,N,N',N'-Tetramethyl-p-phenylenediamine (TMPD) dihydrochloride.
# (§15) • Assay Buffer: 100 mM Tris-HCl buffer, pH 8.0. May contain 1-5 mM EDTA and 1-2 µM
# Phenol (acts as a cofactor for COX-2).
# (§16) • Solvents: Dimethyl Sulfoxide (DMSO), Ethanol (absolute).
# (§17) consistent across all wells (typically ≤1% final concentration).
# o Keep all dilutions on ice.
# (§18) o COX-1 Working Solution: Dilute ovine COX-1 in ice-cold assay buffer to a final
# (§19) concentration of ~50-100 U/mL. Add Hemin to a final concentration of 1 µM.
# (§20) o Note: The exact enzyme units (U) required must be determined by a preliminary activity
# (§21) test to ensure the reaction is linear and within the dynamic range of the assay.
# (§22) Substrate/Chromogen Solution (Prepare Fresh):
# (§23) o To a tube containing assay buffer, add TMPD to a final concentration of 0.2-0.5 mM.
# (§24) o Add Arachidonic Acid to a final concentration of 100 µM. Vortex gently.
# (§25) o Keep this solution protected from light and on ice until use.
# (§26) Assay Setup (Performed in duplicate or triplicate)
# COX-1 = molecular target: T2, COX-1 (Ovis aries, UniProt P05979); assay: In vitro COX-1 inhibition, fluorescent inhibitor screening assay kit; conditions: for inhibitory activity on COX-1: at a concentration of 100 μM
# T2 sequence (P05979 25-600): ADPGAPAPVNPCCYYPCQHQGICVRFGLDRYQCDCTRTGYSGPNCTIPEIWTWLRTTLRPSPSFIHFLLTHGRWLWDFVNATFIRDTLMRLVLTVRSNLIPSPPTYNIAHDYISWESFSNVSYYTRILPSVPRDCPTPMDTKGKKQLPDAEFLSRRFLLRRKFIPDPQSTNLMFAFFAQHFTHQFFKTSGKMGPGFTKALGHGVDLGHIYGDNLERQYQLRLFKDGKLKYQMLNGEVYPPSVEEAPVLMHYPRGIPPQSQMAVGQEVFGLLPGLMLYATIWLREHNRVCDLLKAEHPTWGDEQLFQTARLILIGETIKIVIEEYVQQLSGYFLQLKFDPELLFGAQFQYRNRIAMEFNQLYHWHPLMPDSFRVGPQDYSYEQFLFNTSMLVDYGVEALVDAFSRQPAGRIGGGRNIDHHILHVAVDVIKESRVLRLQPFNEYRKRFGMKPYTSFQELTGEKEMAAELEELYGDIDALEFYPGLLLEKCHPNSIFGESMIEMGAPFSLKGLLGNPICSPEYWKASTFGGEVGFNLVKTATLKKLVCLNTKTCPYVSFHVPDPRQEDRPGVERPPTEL
# Protocol: as §2, §3, §4, §5, §6, §7, §8, §9, §10, §11, §12, §13, §14, §15
# Phenol (acts as a cofactor for COX-2).
# as §16, §17
# o Keep all dilutions on ice.
# as §18, §19, §20, §21, §22, §23, §24, §25, §26
# [1] = test system: carrageenan-induced paw edema; assay: In vivo carrageenan-induced paw edema; conditions: 50 mg/kg oral, mice
# gastric mucosa = assay: Histopathological examination of stomach sections (H&E)
# TNF-α = assay: ELISA of serum TNF-α in carrageenan-treated mice; format: in vivo; conditions: 50 mg/kg; carrageenan-treated mice at 3 h; compared to the control group
# Protocol: To evaluate the anti-inflammatory mechanisms of these compounds, two key chemical mediators, TNF-α and IL-6, were assessed using enzyme-linked immunosorbent assay (ELISA).
# (§1) All mice were sacrificed under anesthesia using ketamine/xylazine (50/15 mg/kg). Blood was collected for the ELISA assays to determine the levels of cytokines TNF-α and IL-6 using the Rat IL6 (Interleukin 6) ELISA Kit and Rat TNFα ELISA Kit (MyBioSource, San Diego, CA, USA), in accordance with the manufacturer’s instructions. The quantitative sandwich enzyme immunoassay technique is the fundamental principle of the TNF-α assay. A microplate was pre-coated with an antibody specific for TNF-α. Standards and samples were pipetted into the wells, and the immobilized antibody bound to any TNF-α that was present. A biotin-conjugated antibody that was specific for TNF-α was introduced to the wells after any unbound substances were removed. Horseradish peroxidase (HRP) conjugated with avidin was introduced to the wells subsequent to the cleaning process. After a wash to eliminate any unbound avidin–enzyme reagent, a substrate solution was introduced to the wells, and the color developed in proportion to the quantity of TNF-α bound in the initial step. The color development was halted, and the color intensity was quantified. Additionally, the Sandwich enzyme immunoassay is the test principle utilized for IL-6. The microtiter plates included in this preparation were pre-coated with an antibody that was specific to Rat IL6. A biotin-conjugated antibody specific to Rat IL6 was then added to the appropriate microtiter plate wells along with standards or samples. Subsequently, each microplate well was incubated with avidin conjugated to horseradish peroxidase (HRP). […] The addition of sulfuric acid solution terminated the enzyme–substrate reaction, and the color change was observed spectrophotometrically at a wavelength of 450 nm ± 10 nm. The concentration of Rat IL6 in the samples was subsequently determined by comparing the OD of the samples to the standard curve.
# Blood was collected immediately following the decapitation of mice, performed in accordance with the institutional animal care and use committee (IACUC) guidelines. After decapitation, whole blood was allowed to flow freely and was collected directly into EDTA and heparinized tubes. The whole blood was centrifuged at 3000× g for 10 min at 4 °C, and the plasma was carefully collected and stored at –80 °C until further analysis.
# IL-6 = assay: ELISA of serum IL-6 in carrageenan-treated mice; format: in vivo; conditions: 50 mg/kg; carrageenan-treated mice at 3 h
# Protocol: Therefore, the anti-inflammatory activity of the tested compounds may hinge on their ability to suppress the pro-inflammatory TNF-α and IL-6 levels.
# as §1, with “curve. […]” for “curve.”
# [2] = stomach sections stained with H&E, 50 mg/kg
smiles,measurement,setting,value
"Cc1ccccc1NC(=O)Cn1cnc2c(cnn2-c2ccccc2)c1=O [Compound 5e, 2-(4-Oxo-1-Phenyl-1,4-Dihydro-5H-Pyrazolo[3,4-d]Pyrimidin-5-yl)-N-(o-Tolyl) Acetamide]",inhibitory activity on COX-2,human recombinant COX-2,no inhibitory activity
same,inhibitory activity on COX-1,COX-1,no inhibitory activity
"O=C(Cn1cnc2c(cnn2-c2ccccc2)c1=O)Nc1ccc(Br)cc1 [Compound 5c, N-(4-Bromophenyl)-2-(4-Oxo-1-Phenyl-1,4-Dihydro-5H-Pyrazolo[3,4-d]Pyrimidin-5-yl) Acetamide]",IC50,human recombinant COX-2,> 100 µM
same,inhibitory activity on COX-2,human recombinant COX-2,no inhibitory activity
same,inhibitory activity on COX-1,COX-1,no inhibitory activity
"Cc1ccc(NC(=O)Cn2cnc3c(cnn3-c3ccccc3)c2=O)cc1 [Compound 5g, 2-(4-Oxo-1-Phenyl-1,4-Dihydro-5H-Pyrazolo[3,4-d]Pyrimidin-5-yl)-N-(p-Tolyl) Acetamide]",inhibitory activity on COX-2,human recombinant COX-2,no inhibitory activity
same,inhibitory activity on COX-1,COX-1,no inhibitory activity
"O=C(Cn1cnc2c(cnn2-c2ccccc2)c1=O)Nc1ccccc1 [Compound 5a, 2-(4-Oxo-1-Phenyl-1,4-Dihydro-5H-Pyrazolo[3,4-d]Pyrimidin-5-yl)-N-Phenyl Acetamide]",inhibitory activity on COX-2,human recombinant COX-2,no inhibitory activity
same,inhibitory activity on COX-1,COX-1,no inhibitory activity
"CC(=O)c1ccc(NC(=O)Cn2cnc3c(cnn3-c3ccccc3)c2=O)cc1 [Compound 5l, N-(4-Acetylphenyl)-2-(4-Oxo-1-Phenyl-1,4-Dihydro-5H-Pyrazolo[3,4-d]Pyrimidin-5-yl) Acetamide]",inhibitory activity on COX-2,human recombinant COX-2,no inhibitory activity
same,inhibitory activity on COX-1,COX-1,no inhibitory activity
"Cc1ccc(-c2cc(C(F)(F)F)nn2-c2ccc(S(N)(=O)=O)cc2)cc1 [Celecoxib, celecoxib, reference compound]",Percentage of inhibition of carrageenan-induced paw edema,[1]; 1 h,0.31%
same,Percentage of inhibition of carrageenan-induced paw edema,[1]; 2 h,44.88%
same,Percentage of inhibition of carrageenan-induced paw edema,[1]; 3 h,56.14%
same,histological structure of the gastric mucosa,gastric mucosa; [2],normal gastric mucosal histology; also recorded: normal histological structure of the gastric mucosa
"COc1ccccc1NC(=O)Cn1cnc2c(cnn2-c2ccccc2)c1=O [Compound 5h, N-(2-Methoxyphenyl)-2-(4-Oxo-1-Phenyl-1,4-Dihydro-5H-Pyrazolo[3,4-d]Pyrimidin-5-yl) Acetamide]",inhibitory activity on COX-2,human recombinant COX-2,no inhibitory activity
same,inhibitory activity on COX-1,COX-1,no inhibitory activity
"O=C(Cn1cnc2c(cnn2-c2ccccc2)c1=O)Nc1ccc(Cl)cc1 [Compound 5b, N-(4-Chlorophenyl)-2-(4-Oxo-1-Phenyl-1,4-Dihydro-5H-Pyrazolo[3,4-d]Pyrimidin-5-yl) Acetamide]",inhibitory activity on COX-2,human recombinant COX-2,no inhibitory activity
same,inhibitory activity on COX-1,COX-1,no inhibitory activity
"COc1ccc2c(c1)c(CC(=O)O)c(C)n2C(=O)c1ccc(Cl)cc1 [Indomethacin, indomethacin, reference compound]",Percentage of inhibition of carrageenan-induced paw edema,[1]; 1 h,15.89%
same,Percentage of inhibition of carrageenan-induced paw edema,[1]; 2 h,29.13%
same,Percentage of inhibition of carrageenan-induced paw edema,"[1]; 3 h, 50 mg/kg",32.33%
same,Percentage of inhibition of carrageenan-induced paw edema,"[1]; 3 h, listed as indomethacin, 50 mg/kg",32.33%
"O=C(Cn1cnc2c(cnn2-c2ccccc2)c1=O)Nc1ccc([N+](=O)[O-])cc1 [Compound 5d, N-(4-Nitrophenyl)-2-(4-oxo-1-phenyl-1,4-dihydro-5H-pyrazolo[3,4-d]pyrimidin-5-yl) Acetamide]",IC50,human recombinant COX-2,0.49 ± 0.017 µM
same,"SI, in vitro COX-2 selectivity index (COX-1 IC50/COX-2 IC50)",human recombinant COX-2,28.73
same,COX2 %inh,human recombinant COX-2; conc 0.01 (uM),-402%
same,COX2 %inh,human recombinant COX-2; conc 0.1 (uM),-301%
same,COX2 %inh,human recombinant COX-2; conc 1 (uM),-167%
same,COX2 %inh,human recombinant COX-2; conc 10 (uM),-15%
same,COX2 %inh,human recombinant COX-2; conc 100 (uM),76.6%
same,IC50,COX-1,14.1 ± 0.47 µM
same,COX1 %inh,COX-1; conc 0.01 (uM),0.25%
same,COX1 %inh,COX-1; conc 0.1 (uM),1.77%
same,COX1 %inh,COX-1; conc 1 (uM),8.07%
same,COX1 %inh,COX-1; conc 10 (uM),49.5%
same,COX1 %inh,COX-1; conc 100 (uM),76%
same,TNF-α levels in serum,TNF-α,No significant differences
same,Percentage of inhibition of carrageenan-induced paw edema,[1]; 1 h,3.43%
same,Percentage of inhibition of carrageenan-induced paw edema,[1]; 2 h,21.26%
same,Percentage of inhibition of carrageenan-induced paw edema,[1]; 3 h,27.32%
same,histological structure of the gastric mucosa,gastric mucosa; stomach sections stained with H&E; 50 mg/kg,normal histological structure of the gastric mucosa
"COc1ccc(NC(=O)Cn2cnc3c(cnn3-c3ccccc3)c2=O)cc1 [Compound 5i, N-(4-Methoxyphenyl)-2-(4-Oxo-1-Phenyl-1,4-Dihydro-5H-Pyrazolo[3,4-d]Pyrimidin-5-yl) Acetamide]",inhibitory activity on COX-2,human recombinant COX-2,no inhibitory activity
same,inhibitory activity on COX-1,COX-1,no inhibitory activity
"O=C(Cn1cnc2c(cnn2-c2ccccc2)c1=O)N(c1ccccc1)c1ccccc1 [Compound 5k, 2-(4-Oxo-1-Phenyl-1,4-Dihydro-5H-Pyrazolo[3,4-d]Pyrimidin-5-yl)-N, N-Diphenyl Acetamide]",IC50,human recombinant COX-2,0.266 ± 0.009 µM
same,"SI, in vitro COX-2 selectivity index (COX-1 IC50/COX-2 IC50)",human recombinant COX-2,95.8 and 95.75
same,COX2 %inh,human recombinant COX-2; conc 0.01 (uM),-394%
same,COX2 %inh,human recombinant COX-2; conc 0.1 (uM),-266%
same,COX2 %inh,human recombinant COX-2; conc 1 (uM),-76%
same,COX2 %inh,human recombinant COX-2; conc 10 (uM),14.6%
same,COX2 %inh,human recombinant COX-2; conc 100 (uM),67.8%
same,IC50,COX-1,25.5 ± 0.86 µM
same,COX1 %inh,COX-1; conc 0.01 (uM),0.72%
same,COX1 %inh,COX-1; conc 0.1 (uM),5.18%
same,COX1 %inh,COX-1; conc 1 (uM),15%
same,COX1 %inh,COX-1; conc 10 (uM),31.4%
same,COX1 %inh,COX-1; conc 100 (uM),74.9%
same,TNF-α levels in serum,TNF-α,significantly reduced
same,IL-6 levels in serum,IL-6,significantly reduced
same,Percentage of inhibition of carrageenan-induced paw edema,[1]; 1 h,31.46%
same,Percentage of inhibition of carrageenan-induced paw edema,[1]; 2 h,44.88%
same,Percentage of inhibition of carrageenan-induced paw edema,"[1]; 3 h, 50 mg/kg",54.89%
same,histological structure of the gastric mucosa,gastric mucosa; [2],preserved gastric tissue integrity; also recorded: intact gastric tissue; also recorded: normal histological structure of the gastric mucosa
"Cc1cccc(NC(=O)Cn2cnc3c(cnn3-c3ccccc3)c2=O)c1 [Compound 5f, 2-(4-Oxo-1-Phenyl-1,4-Dihydro-5H-Pyrazolo[3,4-d]Pyrimidin-5-yl)-N-(m-Tolyl) Acetamide]",inhibitory activity on COX-2,human recombinant COX-2,no inhibitory activity
same,inhibitory activity on COX-1,COX-1,no inhibitory activity
